Measured values as given in patent US20230000843A1, “MEDICINAL COGNITIVE TREATMENTS” (ACTINOGEN MEDICAL LIMITED, priority 2019, published 2023).

Columns and labels:
healthy elderly subjects [1] = assay: Cogstate Detection test (simple reaction time, psychomotor function); type: in vivo, human
Protocol: (§1) The test was aimed at assessing if, and to what extent, Xanamem™ 20 mg a day may improve performance in healthy elderly subjects from Baseline (Week 0) to Weeks 2, 4, 6, 8, 10, 12 (End of Treatment) and 16 (Follow-up), as measured by changes in the Cogstate Test Battery. 42 subjects were randomised in which 30 subjects received 20 mg Xanamem™ once a day and 12 subjects received matching placebo once a day.
(§2) For each visit, excluding the Screening visit and safety visits (Week 6 and Week 10), subjects arrived at the study site having fasted for at least 10 hours. The subjects took Xanamem™ at site after all the pre-dose blood samples had been taken. Xanamem™ was taken 30 minutes after the start of a meal. On non-study visit days, the subjects took Xanamem™ at the same time each morning with food (30 minutes after the start of the meal).
(§3) One capsule of Xanamem™, or the matching placebo, was administered orally with approximately 200 mL of warm water once a day and with food in the morning, to the subjects from Baseline (Week 0) to End of Treatment (Week 12) for a total of 12 weeks. […]
For this test, the subject pressed a “YES” response key as soon as they detected an event (a card turning face up presented in the centre of the computer screen). The software measured the response time to detect each event.

[2] = CSF and corresponding plasma concentrations at the EOT visit; type: in vivo; settings: human, oral, 20 mg, four CSF samples at the EOT visit, read-out: ratio of CSF to plasma concentrations
Protocol: The ratio of Xanamem™ CSF to plasma concentrations in the four CSF samples taken at the EOT visit ranged from 0.028 to 0.421; the range of CSF concentrations was 3.48 to 6.25 ng/mL, compared to 11.6 to 126 ng/mL for the corresponding plasma concentrations.

healthy elderly subjects [3] = assay: Cogstate Identification test (choice reaction time, visual attention); type: in vivo, human
Protocol: as §1, §2, §3
In this test an event (a card turning face up) occurred in the centre of the computer screen and the subject decided “YES” or “NO” as to whether this event met a predefined and unchanging criterion (i.e. is the color of the card red?). The software measured the speed and accuracy of each response.

healthy elderly subjects [4] = assay: Cogstate One Back working memory test; type: in vivo, human
Protocol: as §1, §2, §3
The Cogstate One Back memory test is a valid measure of working memory. […] The software measured the speed and accuracy of each response.

healthy elderly subjects [5] = assay: Cogstate Test Battery overall: impairment of cognition; type: in vivo, human; settings: 20 mg compared to placebo over 12 weeks
Protocol: as §1
(§4) To assess the efficacy of Xanamem™ 20 mg once a day in improving cognitive ability in the subjects, the Cogstate Test Battery of the subjects were checked at Baseline (Week 0), Weeks 2, 4, and 8, Week 12 (End of Treatment) and Week 16 (Follow-up).
The Cogstate Test Battery included the following tests: detection test, identification test, one card learning test, one back working memory test, and the continuous paired associate learning test (CPAL; paired associate learning).

[6] = Plasma concentrations and pharmacokinetics; type: in vivo, human
Protocol: as §1, §2
(§5) One capsule of Xanamem™, or the matching placebo, was administered orally with approximately 200 mL of warm water once a day and with food in the morning, to the subjects from Baseline (Week 0) to End of Treatment (Week 12) for a total of 12 weeks.
The mean Xanamem™ plasma concentration at 3-5 hours after the first dose of the study was 169 ng/mL. […] The mean trough concentration at Weeks 2, 4, and 8, was 89, 73, and 78 ng/mL, and the mean 3 to 5 hour concentration was 353. 331, and 330 ng/mL for weeks 2, 4, and 8, respectively.
Only body weight was identified as a covariate impacting PK in this model, confirming that the PK of Xanamem™ are consistent between healthy volunteers, patients with Alzheimer's Disease, and healthy elderly subjects.

healthy elderly subjects [7] = assay: One Card Learning test (visual recognition learning); type: in vivo, human
Protocol: as §1, §2, §5
To assess the efficacy of Xanamem™ 20 mg once a day in improving cognitive ability in the subjects, the Cogstate Test Battery of the subjects were checked at Baseline (Week 0), Weeks 2, 4, and 8, Week 12 (End of Treatment) and Week 16 (Follow-up). […]

healthy elderly subjects [8] = assay: Continuous Paired Associate Learning-Delayed test; type: in vivo, human; settings: 20 mg once a day orally, 12 weeks, compared to placebo group
Protocol: as §1, §2, §3
(§6) Finding the correct location for all patterns in the set was defined as a learning trial. […] The software recorded each move as an error or as a correct move.

healthy elderly subjects [9] = assay: Continuous Paired Associate Learning test (CPAL); type: in vivo, human
Protocol: as §1, §2, §5, §4
The Continuous Paired Associate Learning test is a measure of visual associate memory and uses a well-validated paired associate learning paradigm in which the subject must learn the locations of a number of amoeba-like shapes on the computer screen.
Beneath all but two of the blue spheres were amoeboid shapes, one of which matched the central display; the two remaining circles were distractors. In the exposure phase of the test all of the to-be-remembered pattern-location associations were presented on the computer screen simultaneously.
After a five second delay, a pattern was shown in the central location and this signals that the subject should touch the location in the periphery that contained the same pattern. This process continued until the participant had acknowledged all of the pattern-location associations. The learning phase began with the same test display presented during the exposure phase except that now all of the peripheral locations were shown as blue spheres. One of the patterns presented in the exposure phase was presented in the centre location. With the presentation of this pattern, the subject was required to select the peripheral location where an identical pattern was hidden beneath the blue sphere. […]
as §6

[10] = 20 mg once a day orally, 12 weeks, compared to placebo group
[11] = 12 weeks treatment, 20 mg versus placebo, statistically significant

Kp [2]: 0.028 to 0.421
mean 3 to 5 hour plasma concentration ([6]; Week 2, 20 mg once a day): 353 ng/mL
mean trough plasma concentration ([6]; Week 2, 20 mg once a day): 89 ng/mL
mean 3 to 5 hour plasma concentration ([6]; Week 4, 20 mg once a day): 331 ng/mL
mean trough plasma concentration ([6]; Week 4, 20 mg once a day): 73 ng/mL
mean 3 to 5 hour plasma concentration ([6]; Week 8, 20 mg once a day): 330 ng/mL
mean trough plasma concentration ([6]; Week 8, 20 mg once a day): 78 ng/mL
mean plasma concentration at 3-5 hours ([6]; after the first dose, 20 mg oral with food): 169 ng/mL
steady state of plasma concentrations ([6]; trough and 3-5 hour concentrations consistent across Weeks 2, 4 and 8): steady state had been achieved by Week 2
Compound: O=C(c1csc(-c2cn[nH]c2)c1)N1[C@@H]2CC[C@H]1C[C@](O)(c1ncccn1)C2 [Xanamem™, (5-(1H-Pyrazol-4-yl)thiophen-3-yl)(3-hydroxy-3-(pyrimidin-2-yl)-8-azabicyclo[3.2.1]octan-8-yl)methanone]
psychomotor function (speed of performance, log10 transformed reaction times for correct responses) (healthy elderly subjects [1]; [10]): improved psychomotor function
effect on Detection test (psychomotor speed) (healthy elderly subjects [1]; 20 mg versus placebo, by time point): evident at week 8
visual attention (speed of performance, log10 transformed reaction times for correct responses) (healthy elderly subjects [3]; [10]): improved visual attention
effect size, speed of performance on Identification test (attention) (healthy elderly subjects [3]; [11]): > 0.6
working memory (speed of performance, log10 transformed reaction times for correct responses) (healthy elderly subjects [4]; [10]): improved working memory
effect size, speed of performance on One-back test (working memory) (healthy elderly subjects [4]; [11]): > 0.6
impairment of cognition associated with treatment (healthy elderly subjects [5]): no systemic evidence of impairment in any respect of cognition
pharmacokinetic model ([6]; only body weight identified as covariate): one-compartment model with first-order absorption and elimination
visual learning (accuracy of performance, arcsine transformation of proportion of correct responses) (healthy elderly subjects [7]; 20 mg once a day orally, week 8, compared to placebo group): improved visual learning
effect size (ES) data for One Card Learning outcomes (healthy elderly subjects [7]; 20 mg versus placebo, overall): tended to favour Xanamem™ 20 mg
Hippocampal dependent learning and memory (number of errors remembering the associations after a delay) (healthy elderly subjects [8]): improved Hippocampal dependent learning and memory
Hippocampal dependent learning and memory (number of errors remembering the associations) (healthy elderly subjects [9]; [10]): improved Hippocampal dependent learning and memory
differences on Continuous Paired Associates Learning Test outcomes (healthy elderly subjects [9]; 20 mg versus placebo): statistically significant differences in data were in favour of Xanamem™ 20 mg
effect size difference on Continuous Paired Associates Learning Test, sensitivity analysis (healthy elderly subjects [9]; 20 mg versus placebo, Week 4): favoured Xanamem™ 20 mg
effect size (ES) data for Continuous Paired Associates outcomes (healthy elderly subjects [9]; 20 mg versus placebo, overall): tended to favour Xanamem™ 20 mg
